A short description of series [1]: Half life in rat at 1.3 mg/kg, po. The following applies: in vivo. The arrangement: dose 1.3 mg/kg, route oral. Format: ADME, organism-based.
Series [2] can be described thus: AUC (0 to t) in rat at 1.3 mg/kg, po. The series is classed as ADME, organism-based. The arrangement: dose 1.3 mg/kg, route oral. The following applies: plasma.
The nature of series [3]: Plasma clearance in rat at 1.3 mg/kg, po. The series is classed as ADME, organism-based. The arrangement: dose 1.3 mg/kg, route oral.
The nature of series [4]: Volume of distribution at steady state in rat at 1 mg/kg, iv or 1.3 mg/kg, po. Format: ADME, organism-based. The following applies: in vivo, read-out: Vdss.
Series [5] is described as follows: Cmax in rat at 1.3 mg/kg, po. The following applies: in vivo. Set-up: dose 1.3 mg/kg, route oral. Format: ADME, organism-based.
The nature of series [6]: Oral bioavailability in rat at 1.3 mg/kg. Format: ADME, organism-based. To be noted: in vivo.
The nature of series [7]: AUC (0 to t) in rat at 2.2 mg/kg, po. The series is classed as ADME, organism-based. Set-up: dose 2.2 mg/kg, route oral. To be noted: plasma.
The nature of series [8]: Plasma clearance in monkey at 1.6 mg/kg, po. The series is classed as ADME, organism-based, Macaca mulatta. Set-up: dose 1.6 mg/kg, route oral. The following applies: rhesus monkey.
Series [9] in a line: Oral bioavailability in monkey at 1.6 mg/kg, po. The series is classed as ADME, organism-based, Macaca mulatta. The following applies: rhesus monkey, in vivo.
Series [10] in a line: Plasma clearance in rat at 2.2 mg/kg, po. The series is classed as ADME, organism-based. Set-up: dose 2.2 mg/kg, route oral.
The nature of series [11]: Oral bioavailability in rat at 2.2 mg/kg. To be noted: in vivo. Format: ADME, organism-based.
The nature of series [12]: Cmax in monkey at 1.6 mg/kg, po. The series is classed as ADME, organism-based, Macaca mulatta. Set-up: dose 1.6 mg/kg, route oral. To be noted: rhesus monkey, in vivo.
A short description of series [13]: AUC (0 to t) in monkey at 1.6 mg/kg, po. Format: ADME, organism-based, Macaca mulatta. The arrangement: dose 1.6 mg/kg, route oral. The following applies: rhesus monkey, plasma.
A short description of series [14]: Cmax in rat at 2.2 mg/kg, po. The series is classed as ADME, organism-based. Set-up: dose 2.2 mg/kg, route oral. The following applies: in vivo.
Series [15] can be described thus: Half life in monkey at 1.6 mg/kg, po. Format: ADME, organism-based, Macaca mulatta. Set-up: dose 1.6 mg/kg, route oral. The following applies: rhesus monkey, in vivo.
A short description of series [16]: Volume of distribution at steady state in monkey at 1 mg/kg, iv or 1.6 mg/kg, po. Format: ADME, organism-based, Macaca mulatta. The following applies: rhesus monkey, in vivo, read-out: Vdss.
Series [17] in a line: Volume of distribution at steady state in rat at 1 mg/kg, iv or 2.2 mg/kg, po. The series is classed as ADME, organism-based. To be noted: in vivo, read-out: Vdss.
Series [18] in a line: Half life in rat at 2.2 mg/kg, po. Format: ADME, organism-based. Set-up: dose 2.2 mg/kg, route oral. The following applies: in vivo.
A short description of series [19]: Plasma clearance in rat at 0.12 mg/kg, po. Format: ADME, organism-based. The arrangement: dose 0.12 mg/kg, route oral.
Series [20] is described as follows: Oral bioavailability in rat at 0.12 mg/kg. Format: ADME, organism-based. To be noted: in vivo.
Series [21] can be described thus: AUC (0 to t) in rat at 0.12 mg/kg, po. The series is classed as ADME, organism-based. Set-up: dose 0.12 mg/kg, route oral. To be noted: plasma.
A short description of series [22]: Volume of distribution at steady state in rat at 1.1 mg/kg, iv or 0.12 mg/kg, po. The following applies: in vivo, read-out: Vdss. Format: ADME, organism-based.
Series [23] is described as follows: Cmax in rat at 0.12 mg/kg, po. The series is classed as ADME, organism-based. Set-up: dose 0.12 mg/kg, route oral. The following applies: in vivo.
A short description of series [24]: Half life in rat at 0.12 mg/kg, po. Format: ADME, organism-based. Set-up: dose 0.12 mg/kg, route oral. The following applies: in vivo.
A short description of series [25]: Plasma clearance in monkey at 1.3 mg/kg, po. The following applies: rhesus monkey. Format: ADME, organism-based, Macaca mulatta. Set-up: dose 1.3 mg/kg, route oral.
Series [26] in a line: Half life in rat at 2 mg/kg, po. Format: ADME, organism-based. Set-up: dose 2 mg/kg, route oral. The following applies: in vivo.
Series [27] can be described thus: Half life in monkey at 1.3 mg/kg, po. Set-up: dose 1.3 mg/kg, route oral. To be noted: rhesus monkey, in vivo. The series is classed as ADME, organism-based, Macaca mulatta.
Series [28] is described as follows: Volume of distribution at steady state in rat at 1.1 mg/kg, iv or 2 mg/kg, po. To be noted: in vivo, read-out: Vdss. Format: ADME, organism-based.
A short description of series [29]: Cmax in monkey at 1.3 mg/kg, po. The arrangement: dose 1.3 mg/kg, route oral. To be noted: rhesus monkey, in vivo. Format: ADME, organism-based, Macaca mulatta.
Series [30] can be described thus: Oral bioavailability in rat at 2 mg/kg. The series is classed as ADME, organism-based. To be noted: in vivo.
A short description of series [31]: Plasma clearance in rat at 2.0 mg/kg, po. The series is classed as ADME, organism-based. The arrangement: dose 2 mg/kg, route oral.
Series [32] is described as follows: AUC (0 to t) in monkey at 1.3 mg/kg, po. The following applies: rhesus monkey, plasma. The arrangement: dose 1.3 mg/kg, route oral. The series is classed as ADME, organism-based, Macaca mulatta.
The nature of series [33]: AUC (0 to t) in rat at 2 mg/kg, po. Format: ADME, organism-based. Set-up: dose 2 mg/kg, route oral. The following applies: plasma.
Series [34] is described as follows: Cmax in rat at 2 mg/kg, po. The series is classed as ADME, organism-based. The arrangement: dose 2 mg/kg, route oral. To be noted: in vivo.
Series [35] in a line: Volume of distribution at steady state in monkey at 1 mg/kg, iv or 1.3 mg/kg, po. The series is classed as ADME, organism-based, Macaca mulatta. The following applies: rhesus monkey, in vivo, read-out: Vdss.
Series [36] in a line: Oral bioavailability in monkey at 1.3 mg/kg, po. Format: ADME, organism-based, Macaca mulatta. The following applies: rhesus monkey, in vivo.

Molecules are shown by their SMILES.

The text below walks through data of ChEMBL document CHEMBL1154038, “Discovery of orally active, pyrrolidinone-based progesterone receptor partial agonists” (Bioorg Med Chem Lett, 2009).

Usually half-life stands for how long it takes for the measured level to halve. One may read the AUC(0-t) as the area under the concentration-time curve up to a stated or last time point. One may read the CL/F as clearance divided by bioavailability, as obtained after extravascular dosing. As a reminder, the Cmax is the maximum level reached in the sampled fluid or tissue. In general, bioavailability refers to the share of a dose that reaches the circulation, judged against a reference dose that is usually intravenous.

`CCN1C[C@@H](N(Cc2cc(F)ccc2Cl)c2ccc(C#N)c(Cl)c2)CC1=O` showed a half-life in [1] of 2 h. Moreover, the exposure AUC(0-t) in series [2] amounted to 290 ng·h/mL. In series [3], this compound returned a CL/F of 75 mL/min/kg. In addition, in series [4], the Vd is 15 L/kg. In series [5], this compound came in with a Cmax of 97 ng/mL. The compound further gave a bioavailability in series [6] of 100%.

In the case of `CN1C[C@@H](N(Cc2cccc(F)c2F)c2ccc(C#N)c(Cl)c2)CC1=O`, the area under the curve AUC(0-t) worked out at 2300 ng·h/mL in [7] and 270 ng·h/mL in series [13]. The CL/F in [8] was determined as 110 mL/min/kg; in [10], 16 mL/min/kg. Besides, the bioavailability in series [9] was 15%; in [11], 100%. The maximum concentration (Cmax) turned out to be 92 ng/mL in [12] and 660 ng/mL in series [14]. The half-life in [15] is 1.4 h; in [18], 6.2 h. The Vd in series [16] turned out to be 1.7 L/kg; in series [17] it was 3.4 L/kg.

`CC(C)N1C[C@@H](N(Cc2ccccc2Cl)c2ccc(C#N)c(Cl)c2)CC1=O` registered an apparent clearance CL/F in series [19] of 40 mL/min/kg. In series [20], this compound had a bioavailability of 100%. In addition, the AUC(0-t) in [21] stood at 30 ng·h/mL. Also, in [22], the Vd came to 42 L/kg. For the same compound, in series [23], the Cmax came out at 10 ng/mL. The compound further gave a half-life in series [24] of 5.8 h.

As to `CCN1C[C@@H](N(Cc2cc(Cl)ccc2Cl)c2ccc(C#N)c(Cl)c2)CC1=O`, the apparent clearance (CL/F) in series [25] worked out at 480 mL/min/kg; in series [31], 230 mL/min/kg. In addition, the half-life was 1.8 h in [26] and 1.5 h in series [27]. Moreover, the Vd in series [28] came out at 35 L/kg; in series [35], 2.8 L/kg. The highest concentration (Cmax) in series [29] amounted to 15 ng/mL; in [34] it was 84 ng/mL. Moreover, the bioavailability came to 100% in series [30] and 4.9% in series [36]. For the same compound, the results for the AUC(0-t) in [32] and in series [33] were 32 ng·h/mL and 150 ng·h/mL, respectively.
